Results published in ChEMBL document CHEMBL1201862, “PubChem BioAssay data set” (2004).
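Cultured in 96-well plates, cells were exposed to test compound for 48 hours across five concentrations. GI50 is the concentration that inhibits growth by half.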 Active and inactive are the calls of the source. Rule as the data show it: active = GI50 up to about 1.1 µM and inactive = higher.

Tests used:
Assay in all cases: NCI anticancer screen, dose series, 48 h
[1] = test system: LOX IMVI
[2] = test system: EKVX
[3] = test system: IGROV-1
[4] = test system: KM12
[5] = test system: UACC-257
[6] = test system: SK-MEL-28
[7] = test system: OVCAR-8
[8] = test system: U-251
[9] = test system: MOLT-4
[10] = test system: A498
[11] = test system: Hs-578T
[12] = test system: MDA-MB-435
[13] = test system: 786-0
[14] = test system: SF-295
[15] = test system: HOP-62
[16] = test system: NCI-H522
[17] = test system: RXF 393
[18] = test system: MDA-N
[19] = test system: DU-145
[20] = test system: T47D

SMILES | GI50 [1] | GI50 [2] | GI50 [3] | GI50 [4] | GI50 [5] | GI50 [6] | GI50 [7] | GI50 [8] | GI50 [9] | GI50 [10] | GI50 [11] | GI50 [12] | GI50 [13] | GI50 [14] | GI50 [15] | GI50 [16] | GI50 [17] | GI50 [18] | GI50 [19] | GI50 [20]
CCOC(=O)N1CCC2(CC1)C[C@](C)(C(C)=O)C(C)O2 (stereo not given in full) | > 100 µM (inactive) | > 100 µM (inactive) | > 100 µM (inactive) | > 100 µM (inactive) | > 100 µM (inactive) | > 100 µM (inactive) | > 100 µM (inactive) | > 100 µM (inactive) | > 100 µM (inactive) | > 100 µM (inactive) | > 100 µM (inactive) | > 100 µM (inactive) | > 100 µM (inactive) | > 100 µM (inactive) | > 100 µM (inactive) | > 100 µM (inactive) |  |  |  | 
O=S(=O)(c1ccc(/N=C2\NC(c3ccc(O)cc3)(c3ccccc3O)c3ccccc32)cc1)c1ccc(/N=C2/NC(c3ccc(O)cc3)(c3ccccc3O)c3ccccc32)cc1 (stereo not given) | 2.96 µM (inactive) | 5.96 µM (inactive) | 2.68 µM (inactive) | 2.48 µM (inactive) | 5.02 µM (inactive) |  | 3.33 µM (inactive) |  | 4.04 µM (inactive) | 11.9 µM (inactive) | 3.4 µM (inactive) |  | 3.02 µM (inactive) | 5.28 µM (inactive) | 5.28 µM (inactive) | 2.02 µM (inactive) | 4.02 µM (inactive) | 2.99 µM (inactive) | 4.65 µM (inactive) | 2.25 µM (inactive)
CN(Cc1ccccc1)c1nc(=[N+](C)C)ss1 | 36.8 µM (inactive) | > 100 µM (inactive) | > 100 µM (inactive) | 9.42 µM (inactive) | 56.5 µM (inactive) | > 100 µM (inactive) | > 100 µM (inactive) | 40.8 µM (inactive) | 32.1 µM (inactive) | 99.5 µM (inactive) |  |  | > 100 µM (inactive) | > 100 µM (inactive) | > 100 µM (inactive) | 41.1 µM (inactive) | > 100 µM (inactive) |  |  | 
C=C1C(=O)O[C@@H]2/C=C(/C)[C@@H](OC(C)=O)C/C=C(\C)C(O)[C@@H](OC(=O)/C(C)=C\C)C12 (stereo not given in full) | 14.6 µM (inactive) | 32.1 µM (inactive) | 50.7 µM (inactive) | 68.7 µM (inactive) | 37.2 µM (inactive) | 18.2 µM (inactive) | 26.8 µM (inactive) | 41.1 µM (inactive) | 21.1 µM (inactive) | 51.3 µM (inactive) | 56.2 µM (inactive) | 20.4 µM (inactive) | 15.1 µM (inactive) | > 100 µM (inactive) | > 100 µM (inactive) | 13.4 µM (inactive) | 26.8 µM (inactive) |  | 43.7 µM (inactive) | 19.6 µM (inactive)
CCOP(=O)(OCC)C(C)(C)OC(=O)NC#N | > 100 µM (inactive) | > 100 µM (inactive) | > 100 µM (inactive) | > 100 µM (inactive) | > 100 µM (inactive) | > 100 µM (inactive) | > 100 µM (inactive) | > 100 µM (inactive) | > 100 µM (inactive) |  | > 100 µM (inactive) | > 100 µM (inactive) | > 100 µM (inactive) | > 100 µM (inactive) | > 100 µM (inactive) |  | > 100 µM (inactive) | > 100 µM (inactive) | > 100 µM (inactive) | > 100 µM (inactive)
CCOC(=O)CC(=O)C(=O)NN=C1NCCCN1 | > 100 µM (inactive) | > 100 µM (inactive) | > 100 µM (inactive) | > 100 µM (inactive) |  | > 100 µM (inactive) | > 100 µM (inactive) | > 100 µM (inactive) | > 100 µM (inactive) |  | > 100 µM (inactive) | > 100 µM (inactive) | > 100 µM (inactive) | > 100 µM (inactive) | > 100 µM (inactive) |  | > 100 µM (inactive) | > 100 µM (inactive) | > 100 µM (inactive) | > 100 µM (inactive)
COC(=O)Oc1nn(C(=O)OC)c(=O)c2ccccc12 | > 100 µM (inactive) | > 100 µM (inactive) | > 100 µM (inactive) | > 100 µM (inactive) | > 100 µM (inactive) | > 100 µM (inactive) | > 100 µM (inactive) | > 100 µM (inactive) | > 100 µM (inactive) |  | 65.8 µM (inactive) | > 100 µM (inactive) | > 100 µM (inactive) | > 100 µM (inactive) | > 100 µM (inactive) | > 100 µM (inactive) |  | > 100 µM (inactive) | > 100 µM (inactive) | 74.5 µM (inactive)
Cn1c(S)nnc1CNc1ccc(-c2nnc(S)n2C)cc1 | > 100 µM (inactive) | > 100 µM (inactive) | > 100 µM (inactive) | > 100 µM (inactive) | > 100 µM (inactive) | > 100 µM (inactive) | > 100 µM (inactive) | > 100 µM (inactive) | > 100 µM (inactive) |  |  | > 100 µM (inactive) | > 100 µM (inactive) | > 100 µM (inactive) | > 100 µM (inactive) | > 100 µM (inactive) |  | > 100 µM (inactive) | > 100 µM (inactive) | 
COc1ccc(/C=C2\C(=O)N(C)C(=O)c3cc(OC)c(OC)cc32)cc1OC | 16 µM (inactive) | 10.7 µM (inactive) | 29.2 µM (inactive) |  | 47.3 µM (inactive) |  |  | 33 µM (inactive) | 52.1 µM (inactive) | 27.4 µM (inactive) |  | 34.5 µM (inactive) | 43.5 µM (inactive) | 37.8 µM (inactive) | 29.9 µM (inactive) | 15.7 µM (inactive) | 23.6 µM (inactive) | 24.3 µM (inactive) | 25.3 µM (inactive) | 24.5 µM (inactive)
Nc1nc(NCc2ccccc2)cc(NCc2ccccc2)n1 | 4.23 µM (inactive) | 9.93 µM (inactive) | 4.44 µM (inactive) | 4.28 µM (inactive) | 5.69 µM (inactive) | 12 µM (inactive) | 4.11 µM (inactive) | 5.14 µM (inactive) | 7.18 µM (inactive) | 0.668 µM (active) | 2.86 µM (inactive) | 2.48 µM (inactive) | 4.92 µM (inactive) | 4.91 µM (inactive) | 12.8 µM (inactive) | 4.24 µM (inactive) | 6.31 µM (inactive) | 1.14 µM (inactive) |  | 4.48 µM (inactive)
Cc1c(C#N)c2ccccc2c2nc3ccccc3n12 | 34.4 µM (inactive) | > 100 µM (inactive) | 31.9 µM (inactive) | > 100 µM (inactive) | > 100 µM (inactive) | > 100 µM (inactive) | > 100 µM (inactive) | > 100 µM (inactive) | 47.5 µM (inactive) | > 100 µM (inactive) | 63 µM (inactive) | > 100 µM (inactive) | 37.9 µM (inactive) | > 100 µM (inactive) | 75.5 µM (inactive) | 16.4 µM (inactive) | > 100 µM (inactive) | 67.6 µM (inactive) | 43.2 µM (inactive) | 
CSC1(CC(=O)N2CCCCC2)C(=O)Nc2ccccc21 (stereo not given) | > 100 µM (inactive) | > 100 µM (inactive) | > 100 µM (inactive) | > 100 µM (inactive) | > 100 µM (inactive) | > 100 µM (inactive) |  | > 100 µM (inactive) | > 100 µM (inactive) | > 100 µM (inactive) | > 100 µM (inactive) | > 100 µM (inactive) | > 100 µM (inactive) | > 100 µM (inactive) | > 100 µM (inactive) |  |  |  | > 100 µM (inactive) | > 100 µM (inactive)
O=c1[nH]c2ccc(CC(=S)N3CCOCC3)cc2o1 | > 100 µM (inactive) | > 100 µM (inactive) | > 100 µM (inactive) | > 100 µM (inactive) | > 100 µM (inactive) | > 100 µM (inactive) | > 100 µM (inactive) | > 100 µM (inactive) | > 100 µM (inactive) | > 100 µM (inactive) | > 100 µM (inactive) | > 100 µM (inactive) | > 100 µM (inactive) | > 100 µM (inactive) | > 100 µM (inactive) |  | > 100 µM (inactive) |  |  | 
N/C(=N\c1ccc(Cl)cc1)NS(=O)(=O)c1cccc2nsnc12 | 25.1 µM (inactive) | 19.7 µM (inactive) | 23.7 µM (inactive) | 34.3 µM (inactive) | 13.9 µM (inactive) | 21 µM (inactive) | 27.6 µM (inactive) | 19.4 µM (inactive) | 26.9 µM (inactive) | 15.6 µM (inactive) | 20.9 µM (inactive) |  | 24.7 µM (inactive) | 45.5 µM (inactive) | 94.2 µM (inactive) | 5.92 µM (inactive) | > 100 µM (inactive) | 23.7 µM (inactive) | 82.2 µM (inactive) | 39.4 µM (inactive)
CC1CCC2(C)C(CC=C(C=O)C2(O)C=O)C12CO2 (stereo not given) | 2.69 µM (inactive) | 6.98 µM (inactive) | 2.32 µM (inactive) | 3.21 µM (inactive) | 1.52 µM (inactive) | 1.79 µM (inactive) | 2.22 µM (inactive) | 2.81 µM (inactive) | 1.87 µM (inactive) | 6.7 µM (inactive) |  |  | 2.4 µM (inactive) | 3.31 µM (inactive) | 20.9 µM (inactive) | 2.31 µM (inactive) | 1.48 µM (inactive) |  |  | 
O=C(Nc1ccccn1)c1cc2c(cc1Cl)Sc1nccn1S2(=O)=O | 26.8 µM (inactive) | 38.2 µM (inactive) | 23.8 µM (inactive) | 33.6 µM (inactive) | 33.7 µM (inactive) | 44.3 µM (inactive) | 37.8 µM (inactive) | 44.4 µM (inactive) | 31.3 µM (inactive) | 45 µM (inactive) | > 100 µM (inactive) | 27.9 µM (inactive) | 35.1 µM (inactive) | 36.6 µM (inactive) | 39.6 µM (inactive) | 39.1 µM (inactive) | 25.5 µM (inactive) | 36.3 µM (inactive) |  | 20.7 µM (inactive)
